Where a name gives a salt, the structure may show the parent alone.
System: not listed separately
Test: Radical scavenging, glucose oxidase/luminol luminescence
Format: biochemical
Settings: concentration reducing luminescence/radical by 50%; mean ± SD, three independent experiments
Experimental: A. Measurement of Radical Scavenging
A mixture comprising glucose oxidase (GO), luminol, sodium selenite [IV] ([…]) and cobalt [II] (Co^+2) all in Hank's Balance Salt Solution (HBSS) was used (Ginsburg et al, 2004). The production of H2O2 produces a burst of luminescence within 30-60 sec, which lasts for 7-10 min. The luminescence involves oxidation of SEL+5 to it SEL+6 and also the generation of oxidants, which are catalyzed by Co^+2. This method mimics infection and inflammation conditions in which there is an accumulation of several oxidant species. This method provides a source of several radicals. Reduction in luminescence by the compounds is due to their ability to sequester radicals and was measured after addition of several concentrations of each compound. The concentration of each compound that reduced the luminescence by 50% was calculated.

SMILES | IC50 [µM]
CCCCN(C)C(=O)Oc1cccc2c1C(CCC(=O)OC)CN2C (stereo not drawn) [AN-667, 3-(2-(Methoxycarbonyl)ethyl)-1-methylindolin-4-yl butylmethylcarbamate hydrochloride] | 6.84 ± 0.05
CCN(C)C(=O)Oc1cccc2c1C(CCC(=O)OC)CN2C (stereo not drawn) [AN-698, 3-(2-(Methoxycarbonyl)ethyl)-1-methylindolin-4-yl ethylmethylcarbamate hydrochloride] | 3.13 ± 0.36
CCN(C)C(=O)Oc1cccc2c1C(CCC(=O)O)CN2C (stereo not drawn) [AN-699, 3-(4-((Ethyl(methyl)carbamoyl)oxy)-1-methylindolin-3-yl)propanoic acid hydrochloride] | 1.64 ± 0.06
COc1ccc(N(C)C(=O)Oc2cccc3c2C(CCC(=O)O)CN3)cc1 (stereo not drawn) [AN-821, hydrochloride] | 4.33 ± 0.06
COc1ccc(N(C)C(=O)Oc2cccc3c2C(CCC(=O)O)CN3C)cc1 (stereo not drawn) [AN-822, hydrochloride] | 10.2 ± 4.1
[2H]c1cc2c(cc1O)N(C)CC2CCC(=O)O (stereo not drawn) [AN-849, Methyl 3-(5-deuteriu-6-hydroxy-1-methylindolin-3-yl) propanoic acid hydrochloride] | 0.84 ± 0.05
CCN(C)C(=O)Oc1cccc2c1C(CCC(N)=O)CN2 (stereo not drawn) [AN-851, 3-(3-Amino-3-oxopropyl)indolin-4-yl ethyl(methyl)carbamate hydrochloride] | 2.39 ± 0.4
CN(C)C(=O)Oc1cccc2c1CCN2 [AN-856, Indolin-4-yl dimethylcarbamate hydrochloride] | 0.77 ± 0.03
CCN(C)C(=O)Oc1ccc2c(c1)NCC2 [AN-885, Indolin-6-yl ethyl(methyl)carbamate hydrochloride] | 1.15 ± 0.01

System: TNF-α, BV2 mouse microglial cells
Test: TNF-α reduction in LPS-stimulated BV2 microglia
Format: cell-based
Settings: not given
Experimental: The BV2 mouse microglial cells were created by infecting primary mouse microglia with v-raf/v-myc oncogen-carrying retrovirus and donated by Dr. Sigal Fleisher—Berkovich (Ben-Gurion University of the Negev). The cells were cultured in RPMI 1640 containing 0.4 mM L-Glutamine, 10% FCS, 100 units/ml penicillin, 100 μg/ml streptomycin and maintained in a humidified incubator at 37° C. with 5% CO2. For measurement of the effect of compounds on the release of NO the cells were seeded in a density of 80,000 cells/ml and confluence of about 60%, and incubated with test compounds (in the absence of FCS) for […] All the medium was removed and fresh medium containing FCS and LPS (10 μg/ml) added and the cells maintained at 37° C. for 24 h. The release of NO into the medium was determined by measurement of nitrite levels using Griess reagent reaction. For measurement of protein levels of cytokines cells were seeded in a density of 80,000 and incubated with test compounds (in the absence of FCS) and then with LPS as described above. The medium was centrifuged and supernatants collected after 6 h for TNF-α (Biolegend) and after 20 h for IL-6 (Biolegend).

SMILES | Reduction in TNF-α levels, BV2 Microglia % peak reduction [%]
Oc1cccc2c1CCN2 [AN-855, Indolin-4-ol hydrochloride] | 38.2 ± 3.2

Same assay, conditions: concentration range; None = no reduction up till 100 nM

SMILES | Reduction in TNF-α levels, BV2 Microglia range
Oc1cccc2c1CCN2 [AN-855, Indolin-4-ol hydrochloride] | 10^−1-100 nM

Target: T1, BuChE (UniProt P81908)
T1 construct: 120 min incubation; BuChE IC50
Test: not given
Format: biochemical, human or equine serum
Settings: read-out: BuChE IC50; most potent BuChE inhibitors
Experimental: B. Measurement of Acetylcholinesterase (AChE) and Butylcholinesterase (BuChE) Inhibition In Vitro
The enzyme was incubated at 37° C. with 6-10 concentrations of the compounds tested and samples were collected at 15, 30, 60 and 120 min Aliquots were transferred to an Elisa multiscan microplate reader (Labsystems) at 15-60 sec time intervals for the determination of residual AChE activity, with Ascent PC software. […] The % inhibition of AChE by each concentration was calculated by comparison with the activity of the enzyme in the absence of drug. […] BuChE-inhibitory activity was determined as described above using BuChE (Sigma Israel) with butylthiocholine iodide (BuTh) 0.075M as a substrate.

SMILES | IC50 [µM]
CCN(C)C(=O)Oc1cccc2c1NCC2CCC(=O)OC (stereo not drawn) [AN-852, Methyl 3-(7-(ethyl(methyl)carbamoyloxy)indolin-3-yl)propanoate hydrochloride] | 0.08

Same assay, conditions: read-out: IC50 BuChE 120 min; Table 3; 120 min incubation

SMILES | IC50 [µM]
CCCCN(C)C(=O)Oc1cccc2c1C(CCC(=O)OC)CN2C (stereo not drawn) [AN-667, 3-(2-(Methoxycarbonyl)ethyl)-1-methylindolin-4-yl butylmethylcarbamate hydrochloride] | 197
CCN(C)C(=O)Oc1cccc2c1C(CCC(=O)OC)CN2C (stereo not drawn) [AN-698, 3-(2-(Methoxycarbonyl)ethyl)-1-methylindolin-4-yl ethylmethylcarbamate hydrochloride] | 6.8
CCN(C)C(=O)Oc1cccc2c1C(CCC(=O)O)CN2C (stereo not drawn) [AN-699, 3-(4-((Ethyl(methyl)carbamoyl)oxy)-1-methylindolin-3-yl)propanoic acid hydrochloride] | 9.7
COc1ccc(N(C)C(=O)Oc2cccc3c2C(CCC(=O)O)CN3)cc1 (stereo not drawn) [AN-821, hydrochloride] | 417
COc1ccc(N(C)C(=O)Oc2cccc3c2C(CCC(=O)O)CN3C)cc1 (stereo not drawn) [AN-822, hydrochloride] | > 600
CCN(C)C(=O)Oc1cccc2c1C(CCC(N)=O)CN2 (stereo not drawn) [AN-851, 3-(3-Amino-3-oxopropyl)indolin-4-yl ethyl(methyl)carbamate hydrochloride] | 8.5
CN(C)C(=O)Oc1cccc2c1CCN2 [AN-856, Indolin-4-yl dimethylcarbamate hydrochloride] | 1.3
COc1ccc(N(C)C(=O)Oc2cccc3c2CCN3)cc1 [AN-857, Indolin-4-yl 4-methoxyphenyl(methyl)carbamate hydrochloride] | 3.6
CCN(C)C(=O)Oc1ccc2c(c1)NCC2 [AN-885, Indolin-6-yl ethyl(methyl)carbamate hydrochloride] | 58.7

System: not given
Test: not given
Settings: not given

SMILES | melting point [°C]
CCCCN(C)C(=O)Oc1ccc2cc[nH]c2c1 | 84 to 87
COC(=O)/C=C/c1c[nH]c2cc(OCc3ccccc3)ccc12 | 174 to 178
COc1ccc(N(C)C(=O)Oc2ccc3cc[nH]c3c2)cc1 | 168 to 173
COc1ccc(N(C)C(=O)Oc2ccc3c(C=O)c[nH]c3c2)cc1 | 218 to 220
COc1ccc(N(C)C(=O)Oc2ccc3c(C=O)cn(C)c3c2)cc1 | 110 to 115
COC(=O)/C=C/c1cn(C)c2cc(OC(=O)N(C)c3ccc(OC)cc3)ccc12 | 120 to 125
CCCCN(C)C(=O)Oc1ccc2c(C=O)cn(C)c2c1 | 90 to 95
COC(=O)/C=C/c1cn(C)c2cc(OCc3ccccc3)ccc12 | 150 to 155
O=C(O)CCc1c[nH]c2cc(O)ccc12 | 197 to 200
Cn1cc(CCC(=O)O)c2ccc(O)cc21 | 157 to 161
COC(=O)/C=C/c1c[nH]c2c(OCc3ccccc3)cccc12 | 134 to 137
COC(=O)CCc1c[nH]c2c(O)cccc12 | 89 to 94
COC(=O)CCc1c[nH]c2cc(O)ccc12 | 93 to 96
COC(=O)CCc1cn(C)c2cc(O)ccc12 | 35 to 40
COC(=O)CCc1cn(C)c2cccc(OC(=O)N(C)c3ccc(OC)cc3)c12 | 110 to 112
COc1ccc(N(C)C(=O)Oc2cccc3c2c(CCC(=O)O)cn3C)cc1 | 161 to 163
COC(=O)/C=C/c1cn(C)c2cccc(OCc3ccccc3)c12 | 122 to 125
COC(=O)CCc1cn(C)c2cccc(O)c12 | 123 to 124
COC(=O)CCC1CN(C)c2cc(O)ccc21 (stereo not drawn) (as salt: hydrochloride) | 104 to 108

More lines, now with the values ahead:

melting point [°C] | SMILES
105 to 108 | CCN(C)C(=O)Oc1ccc2cc[nH]c2c1
170 to 175 | CCN(C)C(=O)Oc1ccc2c(C=O)c[nH]c2c1
195 to 200 | COC(=O)/C=C/c1c[nH]c2cc(O)ccc12
124 to 128 | CCN(C)C(=O)Oc1ccc2c(C=O)cn(C)c2c1
105 to 110 | CCN(C)C(=O)Oc1ccc2c(/C=C/C(=O)OC)cn(C)c2c1
65 to 70 | CCCCN(C)C(=O)Oc1ccc2c(/C=C/C(=O)OC)cn(C)c2c1
132 to 136 | CCN(C)C(=O)Oc1ccc2c(CCC(=O)O)c[nH]c2c1
64 to 66 | CCN(C)C(=O)Oc1cccc2[nH]cc(CCC(N)=O)c12
98 to 101 | CCN(C)C(=O)Oc1cccc2c(CCC(=O)O)c[nH]c12
85 to 87 | CCOC(=O)CCc1c[nH]c2cccc(OC(=O)N(C)CC)c12
171 to 174 | CCN(C)C(=O)Oc1cccc2[nH]cc(/C=C/[N+](=O)[O-])c12
118 to 120 | O=C(O)CCc1c[nH]c2cccc(O)c12
163 to 164 | O=C(O)/C=C/c1c[nH]c2cccc(OCc3ccccc3)c12
94 to 96 | CCN(C)C(=O)Oc1ccc2ccn(CCC(=O)OC)c2c1
113 to 115 | CCN(C)C(=O)Oc1cccc2[nH]ccc12
42 to 45 | CCN(C)C(=O)Oc1cccc2c1ccn2C
85 to 88 | CCN(C)C(=O)Oc1cccc2c1c(C=O)cn2C
86 to 89 | CCCCN(C)C(=O)Oc1cccc2[nH]ccc12
49 to 52 | CCN(C)C(=O)Oc1ccc2c(CCC(=O)OC)cn(C)c2c1
128 to 131 | CCN(C)C(=O)Oc1cccc2[nH]cc(/C=C/C(=O)OC)c12
97 to 100 | CCN(C)C(=O)Oc1cccc2c1c(/C=C/C(=O)OC)cn2C
113 to 115 | COc1ccc(N(C)C(=O)Oc2cccc3[nH]ccc23)cc1
173 to 175 | COc1ccc(N(C)C(=O)Oc2cccc3[nH]cc(C=O)c23)cc1
155 to 157 | COC(=O)/C=C/c1c[nH]c2cccc(OC(=O)N(C)c3ccc(OC)cc3)c12
194 to 196 | COc1ccc(N(C)C(=O)Oc2cccc3[nH]cc(CCC(=O)O)c23)cc1
153 to 156 | COC(=O)/C=C/c1c[nH]c2cccc(OCc3ccccc3)c12
93 to 95 | COC(=O)CCc1c[nH]c2cccc(O)c12
142 to 145 | CCN(C)C(=O)Oc1ccc2c(/C=C/C(=O)OC)c[nH]c2c1
164 to 166 | CCN(C)C(=O)Oc1cccc2[nH]cc(/C=C/C(=O)O)c12

Reference: patent publication US9499484B2, “Indole, indoline derivatives, compositions comprising them and uses thereof” (priority 2012, dated 2016)
